Experimental data published in publication PMC4967021 (Biochemical and biophysical research communications, 2016).

Biological target: T1, CCL21 (Homo sapiens, UniProt O00585)
T1 sequence (O00585 24-134): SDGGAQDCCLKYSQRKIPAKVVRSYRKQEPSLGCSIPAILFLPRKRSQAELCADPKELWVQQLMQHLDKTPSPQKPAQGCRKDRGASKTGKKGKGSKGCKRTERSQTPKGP
Test: […]-1H HSQC NMR titration, chemical shift perturbation fit with ligand depletion
Type: binding
Conditions: 100 µM 15N-CCL21, 25 mM deuterated MES pH 6.0, 10% D2O, 0.2% NaN3

Kd: ~500 µM
SMILES: O=C(O)C1=C[C@H](O)[C@@H](OS(=O)(=O)O)[C@H](O[C@H]2[C@H](O)[C@@H](NS(=O)(=O)O)C(O)O[C@@H]2COS(=O)(=O)O)O1 (stereo partly shown) [heparin disaccharide I-S]
